Source: article PMC12064818, “A general assay platform to study protein pharmacology using ligand-dependent structural dynamics” (Nature Communications, 2025)

How the values were obtained:
[1] = target: FLuc-N-HiBiT (firefly luciferase) (Photinus pyralis, UniProt P08659, form not given/L550V); assay: SDR assay, FLuc-N-HiBiT; settings: for % Activity (max response) / % Activity (max response, + ATP) / % Activity (max response, - ATP): SDR; for % Activity (max response, + ATP) / % Activity (max response, - ATP) / pSDR50 (clade A'): substituted indoline (clade A')
FLuc-N-HiBiT (firefly luciferase), sequence (P08659 2-550 L550V, form open): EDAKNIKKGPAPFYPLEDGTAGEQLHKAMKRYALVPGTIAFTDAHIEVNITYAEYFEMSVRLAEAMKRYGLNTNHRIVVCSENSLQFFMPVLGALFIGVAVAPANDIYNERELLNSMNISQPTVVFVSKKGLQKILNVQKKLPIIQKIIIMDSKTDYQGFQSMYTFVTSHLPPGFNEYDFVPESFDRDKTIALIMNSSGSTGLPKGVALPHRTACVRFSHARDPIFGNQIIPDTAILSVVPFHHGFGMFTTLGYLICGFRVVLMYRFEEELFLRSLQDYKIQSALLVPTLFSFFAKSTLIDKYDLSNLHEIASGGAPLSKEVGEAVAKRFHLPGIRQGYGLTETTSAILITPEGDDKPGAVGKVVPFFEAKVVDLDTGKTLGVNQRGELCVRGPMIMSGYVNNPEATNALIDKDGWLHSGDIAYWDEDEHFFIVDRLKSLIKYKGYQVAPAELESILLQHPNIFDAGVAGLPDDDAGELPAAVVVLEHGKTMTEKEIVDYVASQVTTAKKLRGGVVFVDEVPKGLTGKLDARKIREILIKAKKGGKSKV

[2] = target: T1, FLuc-C-HiBiT (Photinus pyralis, UniProt P08659); assay: biochemical; settings: enzyme activity, 10 uM ATP; read-out: IC50 or SDR50 (mM) / FLuc E
T1 construct: firefly luciferase with C-terminal HiBiT tag, E. coli expressed
T1 sequence (P08659 whole entry, looked up): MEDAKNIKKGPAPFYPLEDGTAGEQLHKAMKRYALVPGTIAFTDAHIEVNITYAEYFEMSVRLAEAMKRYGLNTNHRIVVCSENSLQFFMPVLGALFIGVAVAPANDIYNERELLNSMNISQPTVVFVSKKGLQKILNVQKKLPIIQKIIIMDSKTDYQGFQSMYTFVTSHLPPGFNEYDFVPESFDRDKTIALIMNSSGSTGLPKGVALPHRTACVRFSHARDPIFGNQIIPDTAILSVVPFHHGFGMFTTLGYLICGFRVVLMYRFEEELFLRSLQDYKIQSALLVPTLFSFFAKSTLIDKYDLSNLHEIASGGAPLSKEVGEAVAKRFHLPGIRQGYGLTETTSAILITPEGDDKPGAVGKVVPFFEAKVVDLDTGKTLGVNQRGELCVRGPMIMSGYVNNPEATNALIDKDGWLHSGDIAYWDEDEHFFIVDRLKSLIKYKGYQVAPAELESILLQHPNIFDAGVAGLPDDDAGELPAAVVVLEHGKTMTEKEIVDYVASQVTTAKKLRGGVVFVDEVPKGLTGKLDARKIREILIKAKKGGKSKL

[3] = ATP-independent imidazo[2,1-b]thiazole (clade O) series
[4] = ATP-independent pyrazolo pyrimidine (clade P)

| Structure (SMILES) | pSDR50 (clade O) [1, 3] | % Activity (max response) [1, 3] | pSDR50 (clade P) [1, 4] | % Activity (max response) [1, 4] | IC50 [2] | % Activity (max response, + ATP) ([1]; + ATP) | % Activity (max response, - ATP) ([1]; - ATP) | pSDR50 (clade A') ([1]; + ATP) | pSDR50 (clade A') ([1]; - ATP) |
| --- | --- | --- | --- | --- | --- | --- | --- | --- | --- |
| Cc1ccc(Cc2cn3cc(-c4ccccc4)nc3s2)cc1 [Compound 98] | 5.78 | 56.11% | – | – | – | – | – | – | – |
| c1ccc(-n2ncc3c(N4CCCCC4)ncnc32)cc1 [Compound 373] | – | – | 5.48 | 80.68% | – | – | – | – | – |
| CC1CCCN(c2ncnc3c2cnn3-c2ccccc2)C1 (centres unmarked) [Compound 381] | – | – | 5.61 | 79.86% | – | – | – | – | – |
| CC1CCCN(c2ncnc3c2cnn3-c2ccc(Cl)cc2)C1 (centres unmarked) [Compound 383] | – | – | 5.51 | 116.20% | – | – | – | – | – |
| CCOC(=O)C1CCN(C(=O)c2cccc3c2CCN3C(=O)Nc2ccccc2)CC1 [NCGC00430100-01] | – | – | – | – | 1760 nM | 124.90% | 16.28% | 5.52 | – |
| CN(Cc1ccccc1)C(=O)c1cccc2c1CCN2C(=O)Nc1ccccc1 [NCGC00430102-01] | – | – | – | – | 279 nM | 122.30% | 17.23% | 6.38 | 5.03 |
| CC(NC(=O)c1cccc2c1CCN2C(=O)Nc1ccccc1)c1cccnc1 (centres unmarked) [NCGC00430104-01] | – | – | – | – | 1760 nM | 120.10% | 19.02% | 5.53 | 4.71 |
| CN(Cc1ccco1)C(=O)c1cccc2c1CCN2C(=O)Nc1ccccc1 [NCGC00430106-01] | – | – | – | – | 197 nM | 117.40% | 20.13% | 6.53 | 2.52 |
| CCN1CCN(CCNC(=O)c2cccc3c2CCN3C(=O)Nc2ccc(C)cc2)CC1 [NCGC00430114-01] | – | – | – | – | 1110 nM | 125.50% | 93.19% | 5.79 | 4.11 |
| CCCNC(=O)c1cccc2c1CCN2C(=O)Nc1cccc(C)c1 [NCGC00430116-01] | – | – | – | – | 2480 nM | 115.10% | 34.94% | 5.48 | 3.57 |
| Cc1cccc(NC(=O)N2CCc3c(C(=O)N4CCN(C)CC4)cccc32)c1 [NCGC00430118-01] | – | – | – | – | 1760 nM | 120.00% | 22.45% | 5.59 | 3.92 |
| CCC(C)(C)NC(=O)c1cccc2c1CCN2C(=O)Nc1cccc(C)c1 [NCGC00430120-01] | – | – | – | – | 7850 nM | 86.92% | 21.61% | 4.90 | 2.52 |
| Cc1cccc(NC(=O)N2CCc3c(C(=O)NC(C)(C)C)cccc32)c1 [NCGC00430124-01] | – | – | – | – | 8810 nM | 30.08% | 45.88% | 3.69 | 4.31 |
| COc1ccc(NC(=O)N2CCc3c(C(=O)NCCCN4CCCC4=O)cccc32)cc1 [NCGC00430130-01] | – | – | – | – | 248 nM | 129.70% | 57.00% | 6.47 | 4.44 |
| COc1ccc(NC(=O)N2CCc3c(C(=O)NCCN4CCCCCC4)cccc32)cc1 [NCGC00430136-01] | – | – | – | – | 556 nM | 125.00% | 26.27% | 6.10 | 3.93 |
| COc1ccc(NC(=O)N2CCc3c(C(=O)N(C)Cc4ccco4)cccc32)cc1 [NCGC00430138-01] | – | – | – | – | 1760 nM | 125.10% | 31.17% | 5.60 | 3.60 |
| O=C(NCc1ccco1)c1cccc2c1CCN2C(=O)Nc1ccc(F)cc1 [NCGC00430142-01] | – | – | – | – | 1110 nM | 118.20% | 37.02% | 5.76 | 3.81 |
| CCCCNC(=O)c1cccc2c1CCN2C(=O)Nc1ccccc1 [NCGC00430146-01] | – | – | – | – | 1570 nM | 123.10% | 25.03% | 5.71 | 5.51 |
| CN(C)CCNC(=O)c1cccc2c1CCN2C(=O)Nc1ccccc1 [NCGC00430150-01] | – | – | – | – | 700 nM | 120.00% | 17.07% | 5.93 | – |
| CNC(=O)c1cccc2c1CCN2C(=O)Nc1ccc(C)cc1 [NCGC00430160-01] | – | – | – | – | 351 nM | 123.10% | 78.58% | 6.37 | 4.88 |
| O=C(O)c1cccc2c1CCN2C(=O)Nc1ccc(F)cc1 [NCGC00432687-01] | – | – | – | – | 3.51 nM | 127.90% | 102.18% | 8.36 | 4.92 |

The next lines start with the values.

| pSDR50 (clade O) [1, 3] | % Activity (max response) [1, 3] | pSDR50 (clade P) [1, 4] | % Activity (max response) [1, 4] | IC50 [2] | % Activity (max response, + ATP) ([1]; + ATP) | % Activity (max response, - ATP) ([1]; - ATP) | pSDR50 (clade A') ([1]; + ATP) | pSDR50 (clade A') ([1]; - ATP) | Structure (SMILES) |
| --- | --- | --- | --- | --- | --- | --- | --- | --- | --- |
| – | – | – | – | 49.5 nM | 127.00% | 89.24% | 7.11 | 5.17 | Cc1ccc(NC(=O)N2CCc3c(C(=O)NCc4ccco4)cccc32)cc1 [NCGC00430166-01] |
| – | – | – | – | 4420 nM | 131.70% | 51.01% | 4.89 | 4.36 | Cc1ccc(NC(=O)N2CCc3c(C(=O)NCCc4ccccn4)cccc32)cc1 [NCGC00430168-01] |
| – | – | – | – | 624 nM | 125.10% | 68.63% | 6.06 | 4.73 | COc1ccc(NC(=O)N2CCc3c(C(=O)NCc4ccncc4)cccc32)cc1 [NCGC00430180-01] |
| – | – | – | – | 111 nM | 126.00% | 37.35% | 6.80 | 4.62 | COc1ccc(NC(=O)N2CCc3c(C(=O)N(C)C)cccc32)cc1 [NCGC00430182-01] |
| – | – | – | – | 556 nM | 119.00% | 13.12% | 6.16 | – | COc1ccc(NC(=O)c2cccc3c2CCN3C(=O)Nc2ccc(F)cc2)c(C)c1 [NCGC00430188-01] |
| – | – | – | – | 221 nM | 119.50% | 23.04% | 6.44 | 2.73 | O=C(NCCc1cccnc1)c1cccc2c1CCN2C(=O)Nc1ccc(F)cc1 [NCGC00430192-01] |
| – | – | – | – | 785 nM | 108.30% | 19.81% | 5.86 | – | O=C(NCCc1cccs1)c1cccc2c1CCN2C(=O)Nc1ccc(F)cc1 [NCGC00430196-01] |
| – | – | – | – | 3940 nM | 116.90% | 14.79% | 5.19 | – | CN(C)C(=O)c1cccc2c1CCN2C(=O)Nc1ccc(F)cc1 [NCGC00430198-01] |
| – | – | – | – | > 30000 nM | 19.35% | 9.26% | – | – | CCC(=O)N1CCc2c(C(=O)O)cccc21 [NCGC00432605-01] |
| – | – | – | – | 3940 nM | 65.64% | 14.85% | 5.66 | – | O=C(O)c1cccc2c1CCN2C(=O)c1ccccc1 [NCGC00432607-01] |
| – | – | – | – | 1760 nM | 81.35% | 20.90% | 5.89 | 4.16 | O=C(O)c1cccc2c1CCN2C(=O)c1ccc(F)cc1 [NCGC00432675-01] |
